Data from patent US20090221702A1, “COMPOUNDS” (priority 2005, published 2009).
“Also recorded” adds a separate entry of the source.

Legend:
Assay type in all cases: cell-based
PKB [1] = biological target: T1, PKB (Mus musculus, UniProt P31750); assay: Western blotting of the phospho-Akt content (FIG. 5); settings: NIH3T3 cells, method as for FIG. 2
T1 construct: endogenous in cells; host or cells: NIH3T3
Description: (§1) In a typical method, NIH3T3 cells were grown in media (GibcoBRL) containing 10% NCS to near confluency in six well plates. The cells were starved using 0.5% serum for 2-3 days. The media was then removed and replaced with serum free media for 15 minutes. Subsequently, 1% NCS was added to reaction wells, and 0%, 1% and 10% NCS to control wells. After 20 minutes incubation, the compound was added, and the wells incubated for a further 15 minutes. Media was removed and sample buffer was added and the cells lysed, boiled, centrifuged.
(§2) Samples were subjected to gel electrophoresis by 10% SDS-PAGE and then Western blotted on to PVDF membrane (Biorad) according to standard protocols. Western blots were probed using primary antibodies against PKB purchased from New England Biolabs and secondary antibodies of goat anti-rabbit IgG coupled to horseradish peroxidase (Amersham). The membranes were then developed using a freshly prepared ECL solution according to standard protocols.
Western blotting of the phospho-Akt content was also monitored. The methodology used was the same as above.

NIH3T3 fibroblasts = assay: MTT assay; settings: 50 μM
Description: However its inhibitory effects on stimulated cells were not as strong. The methods used were as for Example 2.

PKB [2] = assay: Immunofluorescence microscopy with phospho-specific Ser473 PKB antibody in NIH 3T3 or Cos6 fibroblasts; settings: for phosphorylation of PKB on S473 by compound alone: 10 min, starved Cos6 cells, without any serum
Description: We therefore tested the compound's effect on PKB S473 phosphorylation by immunofluorescence microscopy with a phospho-specific PKB antibody.
(§3) NIH 3T3 of Cos6 fibroblasts growing on PLL coated coverslips in DMEM containing 10% FCS were starved for 24 hours. Stimulation with c48/80 [10 μg/ml] was always carried out in the presence of 1% FCS for 10 min. Whereas cells growing in DMEM completely depleted of serum were used for experiments with cQ [15 μg/ml]. Where indicated, cells were pretreated with 100 μM LY294002 for 30 min or 500 nM RV001 for 15 min. After treatment cells were washed with PBS, fixed with 4% PFA and permeabilised with 0.25% Triton-X/PBS and washed extensively. After blocking in 1% BSA, cells were phalloidin stained and/or incubated with phospho-specific Ser473 PKB antibody (Cell Signalling) at 4° C. over night and a Fluorescein (FITC)—conjugated goat anti-mouse IgG (Jackson Immuno Research) at room temperature for 1 h. Nuclei were stained with Dapi. Coverslips were mounted on Mowiol containing slides and sealed before analysing on a Nikon Microscope.

PKB [3] = biological target: T1, PKB; assay: Western blot monitoring PKB modulation in NIH3T3 cells (FIG. 2); settings: 1% NCS, various concentrations, 15 minutes
Description: PKB is a protein downstream effector of PI3K, and becomes phosphorylated on (residues required for its activity) in response to the activation of PI3K. Natal Calf Serum (NCS) is a stimulator of PI3K and thus subsequently results in PKB activation. Therefore the positive control used in experiments is 10% serum and a negative control used is provided with no serum at all.
as §1, §2

Cos6 fibroblasts = assay: Phalloidin staining of F-actin / actin remodelling in starved Cos6 fibroblasts; settings: for insulin-stimulated actin remodelling: 15 μg/ml cQ and 5 μg/ml insulin
Description: as §3

T1 sequence (P31750 whole entry): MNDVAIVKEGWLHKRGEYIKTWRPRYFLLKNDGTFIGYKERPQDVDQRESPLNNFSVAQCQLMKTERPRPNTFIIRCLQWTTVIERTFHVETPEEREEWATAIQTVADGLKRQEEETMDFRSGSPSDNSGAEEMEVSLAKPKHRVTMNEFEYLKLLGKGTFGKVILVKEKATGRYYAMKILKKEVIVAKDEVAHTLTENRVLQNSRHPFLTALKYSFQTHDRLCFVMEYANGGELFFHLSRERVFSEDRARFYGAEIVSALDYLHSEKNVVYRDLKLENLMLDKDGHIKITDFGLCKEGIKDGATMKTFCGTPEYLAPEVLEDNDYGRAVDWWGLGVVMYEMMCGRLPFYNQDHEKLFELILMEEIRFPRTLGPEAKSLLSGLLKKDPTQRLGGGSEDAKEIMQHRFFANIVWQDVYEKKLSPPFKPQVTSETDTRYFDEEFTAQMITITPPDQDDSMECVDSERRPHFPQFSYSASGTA

Row | SMILES | activation of PKB (phospho-Akt content, western blots, FIG. 5) (PKB [1]) | cytotoxicity (MTT assay) (NIH3T3 fibroblasts) | Akt/PKB phosphorylation in starved cells (PKB [2]; 1 μM, starved cells) | inhibitory effects on Akt/PKB phosphorylation in stimulated cells (PKB [2]; 1 μM, stimulated cells, compared with 50 μM) | Akt/PKB phosphorylation in Insulin stimulated cells (PKB [2]; 50 μM, Insulin stimulated cells) | response with PTEN inhibition (increased PI(3,4,5)P3 levels) (PKB [2]; 50 μM, PTEN inhibition) | S473 phosphorylation with PI3-kinase inhibition (PKB [2]; 50 μM, Wortmannin or LY294002) | Akt/PKB phosphorylation on S473 in starved cells (PKB [2]; 50 μM, starved cells) | effect on PKB (phosphorylation of PKB, western blots, FIG. 2) (PKB [3]) | insulin-stimulated actin remodelling (Cos6 fibroblasts; 10 min) | insulin-stimulated actin remodelling (Cos6 fibroblasts; 10 min, listed as cQ) | stress fibers in starved fibroblasts (Cos6 fibroblasts; 15 μg/ml, 10 min, starved Cos6) | cytoskeleton reorganisation, dependence on PI3-kinase (Cos6 fibroblasts; 15 μg/ml, preincubation with 100 μM LY294002 for 30 min, listed as cQ) | F-actin organisation after treatment (Cos6 fibroblasts; 15 μg/ml, starved Cos6) | PKB activation with PTEN inhibitor RV001 (increased PI(3,4,5)P3 levels) (PKB [2]; 15 μg/ml cQ, 500 nM RV001 pretreatment, 0.2 μg/ml insulin, listed as cQ) | compound-induced PKB phosphorylation after PI3-kinase inhibition (PKB [2]; 15 μg/ml cQ, 30 min preincubation with 100 μM LY294002, listed as cQ) | effect of pretreatment on activation of PKB by serum (PKB [2]; 15 μg/ml, 10% FCS, starved cells) | phosphorylation of PKB on S473 by compound alone (PKB [2]; 15 μg/ml) | phosphorylation of PKB on S473 by compound alone (PKB [2]; 15 μg/ml, listed as cQ) | effect of serum on compound-induced PKB activation (PKB [2]; increasing concentrations of serum)
1 | Oc1ccc(CCCl)cc1Cc1cc(CCCl)ccc1O [Compound C, 3,3′-Methylenebis[1-(2-chloroethyl)-4-hydroxybenzene]] | can activate PKB | cytotoxic effects | still activatory on its own | not as strong | inhibitory on Akt/PKB phosphorylation | inhibited the response | increase of phosphorylation at this site | activate Akt/PKB phosphorylation on S473 | – | – | – | – | – | – | – | – | – | – | – | –
2 | COc1c(CO)cc(C)cc1CO [Compound F, 2,6-Bis(hydroxymethyl)-4-anisole] | can activate PKB | – | – | – | – | – | – | – | activators | – | – | – | – | – | – | – | – | – | – | –
3 | Oc1ccc(CCCl)cc1 [Compound Q] | can activate PKB | – | – | – | – | – | – | – | – | inhibits insulin-stimulated actin remodelling | counteract insulin-stimulated actin remodelling; also recorded: interferes with insulin-stimulated stress fiber breakdown | induces the loss of stress fibers in starved fibroblasts | capable of reorganising the cytoskeleton independent of PI3-kinase | produces a disorganised cytoplasmic F-actin and an actin ring juxtaposed to the plasma membrane | indirectly inhibits PKB activation after cQ challenge; also recorded: inhibited PI(3,4,5)P3 mediated PKB activation | strongly increased cQ induced PKB phosphorylation; also recorded: increased cQ induced PKB phosphorylation | completely abolished the activation of PKB by 10% FCS | induces phosphorylation of PKB | sufficient to induce phosphorylation of PKB on S473 residue | increasing concentrations of serum inhibit cQ induced PKB activation
